US20260098072A1, “METHODS OF STIMULATING APPETITE AND/OR INCREASING BODY WEIGHT USING NON-NATURALLY OCCURRING MELANOCORTIN RECEPTOR ANTAGONIST ANALOGS” (Endevica Bio, Inc., priority 2022, published 2026)
Where “and” joins values, the source holds several entries; their conditions need not be identical. Equal values may be shown once. Entries after “also recorded” stand apart in the source; their conditions may differ. Positions of bridges follow the written chain, without caps; N, C: chain ends. Non-standard residues stand in square brackets, D forms with d. Residues, ends and D or L forms follow the SMILES beside them. d2Nal = N[C@H](Cc1ccc2ccccc2c1)C(=O)O; Nle = CCCC[C@H](N)C(=O)O

Assays:
LPS model of cachexia = experiment: LPS-induced cachexia assay in rats; format: in vivo, rat; conditions: for peripheral (IP) anti-cachexia activity / blood-brain barrier transport: peripheral administration
Experimental: The LPS model uses rats were maintained on a 12 h light/dark schedule with ad libitum access to food and water. Animals were handled daily for a minimum of three consecutive days to decrease non-specific handling stress. On the day of the experiment, individually housed animals received intraperitoneal injections of LPS dissolved in 0.5% low-endotoxin BSA, 0.9% saline or 0.5% BSA in 0.9% saline alone, and were returned to their home cage. The drug or control was administered (ICV, IP, or PO, depending on the type of study) 1-hour after LPS injection.
In the experiments performed in accordance with the present technology, a series of melanocortin receptor antagonist peptides were examined in a bacterial endotoxin inducing cachexia assay. For this assay, a rat is challenged with a single peripheral injection of lipopolysaccharide (LPS). LPS is a heat-stable lipo-polysaccharide, the major component of the outer membrane (capsule) of gram negative bacteria. In non-capsulated strains, it appears as a cell surface protein. LPS produces a strong immune response, including secretion of the proinflammatory cytokines Tumor Necrosis Factor α (TNFα) and interleukin-1 (IL-1). Proinflammatory cytokines are known factors that induce cachexia.
Rats are maintained on a 12-hour light/dark cycle. Animals are handled daily for a minimum of 5 consecutive days to acclimate them to the handling required for the experiment. […] On the day of the experiment, individually housed animals receive intraperitoneal (IP) injections of LPS dissolved in 0.5% low-endotoxin BSA, 0.9% saline or 0.5% BSA in 0.9% saline alone, and returned in their home cage. Melanocortin receptor antagonist peptides were administered (IP or by gavage, depending on the type of study) one hour after the LPS injection. The extent of cachexia is measured by the reduction in food intake, measured every two hours. The cachexia typically lasts only a single day. However, rats lose up to 5% of their body weight during a 12-hour light cycle, making up this loss plus food needed for normal growth during the 12-hour dark cycle. Thus, failure to eat appropriately during a single dark cycle is determinable from the animal's weight and any changes thereof.
A series of melanocortin receptor antagonist peptides were examined in a bacterial toxin inducing cachexia assay. In this assay, a rat was challenged with a single peripheral injection of lipopolysaccharide (LPS), a bacterial toxin that rapidly induces acute cachexia. The extent of cachexia was measured as a reduction in food intake, measured every two hours. The cachexia typically lasts only a single day.

[1] = tested on: urethane-anesthetized rats; experiment: Cardiovascular effects (MAP, heart rate, ECG) in urethane-anesthetized rats
Experimental: These studies were performed in urethane-anesthetized rats, since anesthesia is required for six-lead ECG monitoring. […] Initial selection of doses was guided by FDA exploratory IND studies with a recommendation for at least a 100-fold excess of the human dose.

Lewis sarcoma rat model = Lewis sarcoma rat model of cancer cachexia; format: in vivo
Experimental: This sarcoma is an aggressive form of cancer that produces significant cachexia. Popp et al., Cancer 49 (6): 1212-1220 (1982). In the protocol, “treatment” began 8-days after tumor implantation, with a significant decrease in food intake from baseline. Body composition was determined by NMR prior to tumor implantation, and on the final day of the experiment after tumor resection, by ECHO MRI (NMR). Tumor implantation produces cachexia on or about the sixth day. The non-naturally occurring melanocortin analog or saline was administered after day 8 and continued through day 12.

[2] = Phase 1 clinical trial (NCT05529849), safety; format: in vivo, human; conditions: 5 SAD and 3 MAD cohorts
From the text: Safety results of the single center, inpatient, double-blind, randomized, sequential assessment of 5 SAD (1a-5a) and 3 MAD (1b-3) cohorts dosed over 5 days TCMCB07 Phase 1 Clinical Trial (NCT05529849) have been summarized in FIG. 25. The entirety of the TCMCB07 Phase 1 Clinical Trial (NCT05529849) is incorporated herein by reference.

[3] = TCMCB07 in plasma and cerebrospinal fluid after IV administration (blood-brain barrier transport); format: in vivo, rat
Experimental: Urethane-anesthetized rats had polyethylene (PE)-tubing cannulas placed in their femoral artery and vein. Each rat was then placed in a small animal stereotaxic apparatus, their head fixed in the lateral plane with ear bars, and their head placed in a 45-50° downward angle by placing their nose below an adjustable tooth bar. This position placed the animal's cistern magna at the highest vertical position of its body. The dural covering of the dorsal cistern magna was exposed.
A stainless steel cannula, with one end attached to PE-tubing, was placed in a stereotaxic tower cannula holder (open end down). The free end of the PE-tubing was attached to a 100 µL gas-tight Hamilton syringe with a 28-gauge needle. The cannula was adjusted to a position that approximated the middle of the exposed cistern magna, and the cannula lowered until it touched the dura mater. […] The dura has a degree of flexibility such that the cannula can depress it before it pierces it. […]
For the experimental procedure, baseline samples of blood and CSF were taken (“O” time points), followed by the IV administration of 750 nmol/kg TCMCB07. […] Both CSF and plasma were stored at −80° C. until analyzed by (HPLC) with spectrofluoremetric monitoring at 230 nm excitation and […] (the fluorescence maximum for the Nal residue). […]

human MC4R = biological target: T1, human MC4R (Homo sapiens, UniProt P32245); experiment: cAMP accumulation assay (HTRF), antagonist activity at MC4R; format: cell-based
T1 construct: expressed in transfected cells; host or cells: HEK293/MC4R/CRE-GFP
Experimental: (§1) The antagonist activity of exemplary non-naturally occurring melanocortin analogs (SEQ ID NOs: 3, 4, 6, 9-11, 14, 15, and 291-309) at the melanocortin 3 receptor (MC3R) and melanocortin 4 (MC4R) receptor was measured via cAMP accumulation assay, according to the following procedure.
(§2) Recombinant cell lines shown in Table 1 were stimulated with melanocortin receptor antagonists and evaluated for cyclic adenosine monophosphate (cAMP) levels as a measurement of receptor activation. cAMP levels were quantified using Homogeneous Time-Resolved Fluorescence (HTRF). The stimulation and CAMP measurement were performed sequentially. First, the compound stimulated the G-protein coupled receptor (GPCR) which then induced downstream signaling, which was measured soon after. Cell lines and stimulated receptors used are detailed in Table 1.
(§3) Twenty-seven exemplary synthetic peptides were tested for antagonist activity at the human MC3R and MC4R at concentrations ranging from 0.1 nM to 1,000 nM. After stimulation, the level of cyclic adenosine monophosphate (CAMP) in each well was quantified via Homogenous Time-Resolved Fluorescence (HTRF) as a measurement of receptor activity. Dose-response curves and estimated IC50 values were then obtained for each antagonist peptide against the MC3R and MC4R. HS024 (TFA) and was used as a positive control for the antagonist activity of MC3R (FIG. 1A) and MC4R (FIG. 1B).

human MC3R = biological target: T2, human MC3R (Homo sapiens, UniProt P41968); experiment: cAMP accumulation assay (HTRF), antagonist activity at MC3R; format: cell-based; conditions: HEK293/CRE-luc/MC3R
T2 construct: expressed in transfected cells; host or cells: HEK293/CRE-luc/MC3R
Experimental: as §1, §2, §3

Lewis sarcoma rat = experiment: Reversal of cachexia-induced lethargy; format: in vivo; conditions: once-daily peripheral dosing for 48 hours (2 IP doses)
From the text: In animals and humans, cachexia produces “lethargy,” i.e., the aversion to activity. Grossberg et al., J. Neurosci. 31 (31): 11376-11386. […] This therapeutic effect is dependent on a stabilized non-naturally occurring melanocortin analog C-terminal extension. Video recordings characterized control animal behavior as neo-exploratory movement about the cage, i.e., repeated “sniffing” the air to presumably sample odors (e.g., neighboring animals), grooming, and intermittent bouts of eating and drinking. Caldecott-Hazard et al., J. Neurosci. 8 (6): 1951-1961 (1988).
The animal typically remains in one position for an extended period of time (>1 minute). Occasionally it will change position, assuming the new position for an extended period. The rats show no grooming behavior, evident in the appearance of their coat and eyes.

[4] = biological target: human melanocortin 3 receptor (MC3R) (human) (UniProt P41968); experiment: cell-based or functional assay
[5] = biological target: human melanocortin 4 receptor (MC4R) (human) (UniProt P32245); experiment: cell-based or functional assay
Chain of human melanocortin 4 receptor (MC4R) (human) (P32245 whole entry): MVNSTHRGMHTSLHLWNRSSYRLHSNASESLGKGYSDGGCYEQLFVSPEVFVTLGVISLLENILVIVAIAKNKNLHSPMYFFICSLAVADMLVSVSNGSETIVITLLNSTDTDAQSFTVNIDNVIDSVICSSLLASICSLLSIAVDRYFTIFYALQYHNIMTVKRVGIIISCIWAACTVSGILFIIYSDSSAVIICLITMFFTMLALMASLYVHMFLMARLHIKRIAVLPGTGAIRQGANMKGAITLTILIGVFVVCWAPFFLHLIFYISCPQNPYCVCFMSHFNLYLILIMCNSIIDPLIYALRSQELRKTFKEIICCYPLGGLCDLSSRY

T2 sequence (P41968 whole entry): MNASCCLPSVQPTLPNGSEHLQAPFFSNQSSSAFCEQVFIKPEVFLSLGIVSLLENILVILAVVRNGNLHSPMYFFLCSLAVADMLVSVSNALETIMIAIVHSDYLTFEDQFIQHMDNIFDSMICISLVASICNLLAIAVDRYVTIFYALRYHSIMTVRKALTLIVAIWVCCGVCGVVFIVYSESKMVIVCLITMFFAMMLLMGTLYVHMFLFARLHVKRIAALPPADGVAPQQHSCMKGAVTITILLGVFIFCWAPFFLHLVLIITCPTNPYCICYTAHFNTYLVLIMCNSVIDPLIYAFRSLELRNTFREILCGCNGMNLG
T1 sequence (P32245 whole entry): as the sequence (P32245 whole entry) above
Chain of human melanocortin 3 receptor (MC3R) (human) (P41968 whole entry): as the sequence (P41968 whole entry) above

CCCC[C@H](NC(C)=O)C(=O)N[C@H]1CC(=O)NCCCC[C@@H](C(=O)N[C@@H](C(=O)N2CCC[C@@H]2C(=O)N[C@@H](C(=O)O)[C@H](C)O)[C@H](C)O)NC(=O)[C@H](Cc2c[nH]c3ccccc23)NC(=O)[C@H](CCCNC(=N)N)NC(=O)[C@@H](Cc2ccc3ccccc3c2)NC(=O)[C@@H]2CCCN2C1=O [TCMCB01, Ac-Nle-c[Asp-Pro-DNal(2′)-Arg-Trp-Lys]-DThr-DPro-DThr] (Ac-[Nle]DP[d2Nal]RWK[dT][dP][dT]-OH; lactam 2-7)
anti-cachectic activity after ICV administration (LPS model of cachexia): only produced an anti-cachexia effect when given by IVt administration
peripheral (IP) anti-cachexia activity / blood-brain barrier transport (LPS model of cachexia): did not have peripheral activity; also recorded: no blood-brain barrier transport
Duration ([1]; 600 nmol): 0 min
Peak Heart Rate Response (BPM) ([1]; 600 nmol): 0/0 BPM
Peak MAP Response (Δ mm Hg) ([1]; 600 nmol): 0/0 mm Hg
cardiovascular activity / side effects ([1]; rat, in vivo): little cardiovascular activity
food intake (reversal of cachexia-anorexia) (Lewis sarcoma rat model; 2 nmol once per day): equivalent to AGRP; also recorded: reversed the cachexia-anorexia of the tumor burden
potency compared with AGRP and SHU9119 (Lewis sarcoma rat model; 2 nmol once per day): as potent as the natural melanocortin system inhibitor Agouti Related Protein (AGRP), and significantly more potent than SHU9119
body weight after tumor implantation (Lewis sarcoma rat model; daily body weight): significantly greater than saline controls
lean body mass (NMR after tumor excision) (Lewis sarcoma rat model; p=0.05): increased lean body mass
anti-cachectic effect relative to AGRP (Lewis sarcoma rat model; related study (not shown)): 20 % greater than AGRP

CCCC[C@H](NC(C)=O)C(=O)N[C@H]1CC(=O)NCCCC[C@@H](C(=O)N[C@@H](C(=O)N2CCC[C@@H]2C(N)=O)C(C)C)NC(=O)[C@H](Cc2c[nH]c3ccccc23)NC(=O)[C@H](CCCN=C(N)N)NC(=O)[C@@H](Cc2ccc3ccccc3c2)NC(=O)[C@@H]2CCCN2C1=O [TCMCB07, Ac-Nle-c[Asp-Pro-dNal(2′)-Arg-Trp-Lys]-dVal-dPro-NH2] (Ac-[Nle]DP[d2Nal]RWK[dV][dP]-NH2; lactam 2-7)
CAEs [2]: zero
clinically relevant abnormal laboratory test results [2]: zero
clinically relevant abnormal physical exams [2]: zero
drug-related SAEs [2]: zero
patients having abnormal ECGs [2]: zero
presence in CSF / transport through the blood-brain-barrier ([3]; IV 750 nmol/kg, HPLC effluent by mass spectrometry): confirmed the presence of TCMCB07 in CSF; also recorded: direct physical evidence of TCMCB07 transport through the blood-brain-barrier
level at time molar at 2 min ([3]; rat, plasma, 2 minutes post-intravenous administration, 750 nmol/kg, read-out: Concentration in plasma): 7 µM
Emax (human MC4R; HEK293, HEK293/MC4R/CRE-GFP, 0.1 nM to 1,000 nM, read-out: Max Activation %): 118%
IC50 (human MC4R; HEK293/MC4R/CRE-GFP, estimated from dose-response curve): < 10000 nM and 26.9 nM
Emax (human MC3R; 0.1 nM to 1,000 nM, read-out: Max Activation %): 112%
IC50 (human MC3R; estimated from dose-response curve): < 10000 nM and 43.4 nM

Ac-Nle-c[Asp-Pro-DNal(2′)-Arg-Trp-Lys]-β^3Pro-β^2Val-NH2 [TCMCB05]
behavior (lethargy) (Lewis sarcoma rat): restored “normal” behavior to rats
food intake and body weight, 24-hours (LPS model of cachexia; 0.2 mg/kg intraperitoneally): had stimulated appetites and gained weight
anti-cachectic activity after ICV administration (LPS model of cachexia): molar activity equivalent to TCMCB02
molar activity relative to TCMCB02 (LPS model of cachexia; ICV-administration): 10 fold
peripheral (IP) anti-cachexia activity / blood-brain barrier transport (LPS model of cachexia): had IP anti-cachexia activity; also recorded: had peripheral anti-cachexia activity

HS024 (TFA) (peptide)
IC50 (cAMP by HTRF, antagonist dose-response) [4]: 867 nM
Max Activation % [4]: 102%
IC50 (cAMP by HTRF, antagonist dose-response) [5]: 153 nM
Max Activation % [5]: 104%
